Reference: US6043228A, “O^6 -substituted guanine derivatives, a process for their preparation and their use in treating tumor cells” (Cancer Research Campaign Technology Limited, priority 1993, dated 2000)
“Also recorded” adds a separate entry of the source. Read-outs that look alike come from different tables or passages of the source.

What was measured:
recombinant human ATase = target: T1, recombinant human ATase (Homo sapiens, UniProt P16455); assay: In vitro ATase inactivation assay (incubation with inactivators and ATase assay); type: biochemical; details: for ATase inactivation in vitro, result in words: recombinant human ATase, standard conditions
T1 construct: made in house
T1 sequence (P16455 1-207): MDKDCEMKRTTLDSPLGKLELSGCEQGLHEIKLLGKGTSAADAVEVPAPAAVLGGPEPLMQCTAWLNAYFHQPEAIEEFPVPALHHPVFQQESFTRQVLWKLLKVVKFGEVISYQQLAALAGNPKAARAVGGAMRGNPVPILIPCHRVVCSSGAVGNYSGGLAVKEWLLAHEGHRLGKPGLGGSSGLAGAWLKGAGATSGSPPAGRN
Procedure: The cDNA cloning and overexpression of the human ATase has been reported previously^23. Purification of the recombinant proteins was achieved either by affinity chromatography through a DNA-cellulose column as described by Wilkinson et al.,^25, 26 or by DEAE-cellulose ion-exchange chromatography. For the latter, the ATase protein was partially purified by ammonium sulphate precipitation (30-60%) and dialysed against 10 mM Tris-HCl pH 7.5, 1 mM DTT, 2 mM EDTA, 10% glycerol, before loading on a DEAE-cellulose column. The ATase was then eluted with a 0-0.1 M NaCl gradient.
Compounds to be tested were dissolved in DMSO to a final concentration of 10 mM and diluted just before use in buffer I containing 1 mg/ml bovine serum albumin (IBSA). Recombinant ATase was diluted in IBSA and titrated in order that the reaction be conducted under ATase, and not substrate, limiting conditions. […] Following acid hydrolysis of the DNA as previously described^21 the [^3 H]-methylated protein was recovered and quantitated by liquid scintillation counting. Samples were typically assayed in duplicate and experiments repeated several times. I50 is the concentration of inactivator required to produce a 50% reduction in ATase activity.

[1] = Toxicity of inactivators in combination with BCNU in DBA2 mice; type: in vivo, mouse; details: mouse, in vivo, ip, 60 mg/kg, single i.p. dose, read-out: % SURVIVAL AFTER 14 DAYS
Excerpt: All agents were given as a single i.p. dose

[2] = target: T2, ATase in human melanoma xenografts (Homo sapiens, UniProt P16455); assay: ATase activity in human melanoma (A375) xenografts grown in nude mice after inactivator; type: in vivo; details: single i.p. dose 30 or 60 mg/kg (FIG. 17)
T2 construct: A375M cells are human melanoma cells from which the xenografts described below were established; endogenous in cells; host or cells: A375M xenograft grown in nude mice
T2 sequence (P16455 1-207): T1 sequence (P16455 1-207)
Procedure: Cells (10^6) in 100 μl of PBS were injected subcutaneously into the right-hand flank of 8-10 week old nu/nu athymic mice. These cells were allowed to develop into a tumour for 3-4 weeks for passaging into experimental animals. Tumour blocks measuring 2 mm×2 mm×2 mm were implanted subcutaneously on the right hand flank. These animals were ready for use in inactivator experiments in 7-10 days.
ATase substrate DNA was prepared by incubation of purified calf thymes DNA with N-[^3 H]-methyl-N-nitrosuourea (18.7 Ci/mmole, Amersham International). Cell or tissue extracts (see 4.4) were incubated with [^3 H]-methylated-DNA substrate (100 μl containing 6.7 μg of DNA and 100 fmol of O^6 -[^3 H]methylguanine) at 37° C. for 60 mins. Following acid hydrolysis of the DNA as precviously described^21the [^3 H]-methylated protein was recovered and quantitated by liquid scintillation counting.
Mice were treated with the inactivator as a suspension in corn oil by intraperitoneal injection (i.p.) or by oral gavage (p.o.) 60 mins prior to temozolomide (100 mg/kg in 20% DMSO in phosphate-buffered saline) which was always given by intraperitoneal injection: this schedule was repeated on days 1 to 5 inclusive. Controls received vehicle alone, inactivator alone or temozolomide alone.

Raji cells [3] = assay: Sensitization of Raji cells to BCNU (XTT assay); type: cell-based, human; details: 1.0 μM inactivator (FIG. 2)
Procedure: (§1) Following a 2 hour incubation at 37° C., medium containing either increasing doses of BCNU, temozolomide or equivalent vehicle was added and the cells allowed to grow for 6 days. At this time XTT solution was added and the cells incubated for a further 4 hours at 37° C. The resulting red/orange formazan reaction product was quantified by measuring absorption at 450 nm on a microtitre platereader.

nude mice = assay: Xenograft study: survival of nude mice given inactivator plus BCNU; details: in combination with BCNU (FIGS. 9-13)
Excerpt: BALB-C derived athymic male mice (nu/nu athymic) weighing between 25-35 g were obtained from the in-house breeding colony of the Paterson Institute for Cancer Research, Christie Hospital NHS Trust, Wilmslow Road, Manchester M20 9BX, England (ASU mice). The animals were housed in a sterile environment until required for experiments. In one experiment mice were obtained from Harlan-Olac, Harlan UK Limited, Shaw's Farm, Blackthorn, Bicester, Oxon. OX6 OPT, England (OLAC mice).

Raji cells [4] = assay: Sensitization of Raji cells to temozolomide (XTT assay); type: cell-based, human; details: 0.1-5.0 μM inactivator (FIGS. 3, 4)
Procedure: as §1

[5] = tested on: human bone marrow granulocyte macrophage colony forming cells; assay: Sensitization of bone marrow cells to temozolomide (GM-CFC assay); type: cell-based
Excerpt: For the granulocyte/macrophage colony-forming cell (GM-CFC) assay primary human bone marrow samples were obtained from patients undergoing cardiothoracic surgery. […] The colonies represented precursor cells of the granulocyte/macrophage lineage (huGM-CFC). Survival was expressed as a % of the number of colonies at zero dose temozolomide.

[6] = Table 9, pure recombinant ATase in vitro, read-out: I50 (μm)

Structure (SMILES)	IC50 (recombinant human ATase; [6]) [nM]	ATase inactivation in vitro, result in words (recombinant human ATase)	further results
Nc1nc(OCc2cc(Cl)c(Cl)s2)c2nc[nH]c2n1 [B.4318, O^6-(4,5-dichlorothenyl)guanine]	15	–	–
Nc1nc(OCc2ccc(Cl)s2)c2nc[nH]c2n1 [B.4281, O^6-(5-chlorothenyl)guanine]	4	–	–
N#Cc1csc(COc2nc(N)nc3[nH]cnc23)c1 [B.4317, O^6-(4-cyanothenyl)guanine]	2.8	more efficient inactivator in vitro than its 5-cyano analogue B.4283 or the unsubstituted thenyl derivative B.4205	–
Nc1nc(OCc2ccccc2)c2nc[nH]c2n1 [O^6 -benzylguanine, reference compound]	–	–	survival at 336 h ([1]; inactivator 60 mg/kg + 10 mg/kg BCNU): 50%; survival at 336 h ([1]; inactivator 60 mg/kg + 15 mg/kg BCNU (footnote *)): 0%; survival at 336 h ([1]; inactivator 60 mg/kg + 20 mg/kg BCNU): 33%; inactivation of ATase in human melanoma xenografts, in words [2]: inactivated; sensitizing Raji cells to growth inhibitory effects of BCNU, in words (Raji cells [3]): equally effective; death of treated animals (nude mice): up to 70%; dose response of Raji sensitization to temozolomide, in words (Raji cells [4]): clear dose response; sensitization of GM-CFC to cytotoxic effects of temozolomide, in words ([5]; four different patient samples, 10 μM (FIG. 23)): sensitized; sensitization of GM-CFCs to toxic effects of temozolomide, in words ([5]; three human bone marrow samples (FIG. 14)): sensitised
Nc1nc(OCc2ccsc2)c2nc[nH]c2n1 [B.4206, 0^6-(3-thienylmethyl)guanine]	–	somewhat more effective than BeG; also recorded: I50 values lower than that of BeG	–
Nc1nc(OCc2ccc(Br)s2)c2nc[nH]c2n1 [B.4269, 0^6-(5-bromothenyl)guanine]	–	more efficient than the unsubstituted thenyl derivative B.4205; also recorded: I50 values lower than that of BeG	–
Nc1nc(OCc2cncs2)c2nc[nH]c2n1 [B.4275, 0^6-(5-thiazolylmethyl)guanine]	–	I50 values lower than that of BeG	–
Nc1nc(OCc2ccc(Br)o2)c2nc[nH]c2n1 [B.4336, O^6-(5-bromofurfuryl)guanine]	20	–	–
Nc1nc(OCc2ccc3c(c2)OCO3)c2nc[nH]c2n1 [B.4212, 0^6 -piperonylguanine]	–	considerably better; also recorded: I50 values lower than that of BeG	–
Nc1nc(OCc2ccnc(Cl)c2)c2nc[nH]c2n1 [B.4321, O^6-(2-chloro-4-picolyl)guanine]	40	–	–
CC(Oc1nc(N)nc2[nH]cnc12)c1ccccc1 (racemic) [B.4214, DL-0^6 -(α-methylbenzyl)guanine, reference compound]	–	reduce greatly the inactivating activity; also recorded: did not inactivate ATase up to the highest concentration used	–
N#Cc1ccc(COc2nc(N)nc3[nH]cnc23)o1 [B.4273, 0^6-(5-cyanofurfuryl)guanine]	–	I50 values lower than that of BeG	–
CC(Oc1nc(N)nc2[nH]cnc12)c1cccs1 (racemic) [B.4217, DL-0^6 -(α-methylthenyl)guanine]	–	reduce greatly the inactivating activity; also recorded: did not inactivate ATase up to the highest concentration used	–
Nc1nc(OCc2cc(Cl)cs2)c2nc[nH]c2n1 [B.4298, O^6-(4-chlorothenyl)guanine]	8	–	–
Nc1nc(OCc2csc(Br)c2)c2nc[nH]c2n1 [B.4313, O^6-(5-bromo-3-thienylmethyl)guanine]	6.5	–	–
Nc1nc(OCc2cc3ccccc3o2)c2nc[nH]c2n1 [B.4266, 0^6-(2-benzofuranylmethyl)guanine]	–	I50 values lower than that of BeG	–
N#Cc1ccc(COc2nc(N)nc3[nH]cnc23)s1 [B.4283, O^6-(5-cyanothenyl)guanine]	5	–	–
Nc1nc(OCc2cc3ccccc3s2)c2nc[nH]c2n1 [B.4226, 0^6-(2-benzo[b]thienylmethyl)guanine]	–	I50 values lower than that of BeG	–
COc1ccccc1COc1nc(N)nc2[nH]cnc12 [B.4231, O^6-(2-methoxybenzyl)guanine, reference compound]	–	–	IC50 (recombinant human ATase; Table 4, 1 hour incubation with inactivator at 37° C., read-out: I50): 60000 nM
C[S+]([O-])c1ccc(COc2nc(N)nc3[nH]cnc23)s1 (stereo not drawn) [B.4294, O^6-(5-methylsulphinylthenyl)guanine]	30	–	–
COc1csc(COc2nc(N)nc3[nH]cnc23)c1 [B.4300, O^6-(4-methoxythenyl)guanine]	16.5	–	–
